Values quoted from earlier work as cited in patent US20200368234A1, “PHOTORECEPTOR GENE MODULATOR PHOTOREGULIN 3 FOR TREATMENT OF RETINAL DISEASE” (University of Washington, priority 2017, published 2020).

What was measured:
Rho^P23H = Rho^P23H model of RP; previously reported; cited from earlier work
Pde6b^Rd1 = Pde6b^Rd1 model of RP; previously reported; cited from earlier work
rod gene expression = conditions: developing or mature retina treated with PR1; previously reported; cited from earlier work

SMILES: Cc1cc(C)cc(NC(=O)CCc2nc3sc4c(c3c(=O)[nH]2)CCCC4)c1 [PR1]
- rod degeneration in vitro (Rho^P23H): slows rod degeneration in vitro
- rod degeneration in vitro (Pde6b^Rd1): slows rod degeneration in vitro
- rod and cone gene expression (rod gene expression): reduces rod gene expression and increases the expression of some cone genes
